# Results: paper PMC12340436 (The Journal of Biological Chemistry, 2025)
# Tests used:
# RhsP2tox [1] = molecular target: T1, RhsP2tox (Pseudomonas aeruginosa, UniProt A0A0H2Z8A2, E1576Q); assay: biochemical
# T1 construct: gene PA14_43100
# RhsP2tox [2] = molecular target: T2, RhsP2tox (Pseudomonas aeruginosa, UniProt A0A0H2Z8A2); type: binding
# T2 construct: gene PA14_43100; N-terminal His tag
structure (smiles),measurement,setting,value
NC(=O)c1ccc[n+]([C@@H]2O[C@H](COP(=O)(O)OP(=O)(O)OC[C@H]3O[C@@H](n4cnc5c(N)ncnc54)[C@H](O)[C@@H]3O)[C@@H](O)[C@H]2O)c1 [NAD^+],Kd,RhsP2tox [1],130 ± 38 µM
same,Kd,RhsP2tox [2],172 ± 25 µM
